From patent US8088897B2, “Assay method for group transfer reactions” (BellBrook Labs, Inc., priority 2003, dated 2012)
Read-outs that look alike come from different tables or passages of the source.

Legend:
[1] = test system: Protein G-purified Anti-ADP antibody; experiment: FP competition with 5-FAM-N6-ADP tracer and anti-ADP polyclonal antibody; assay type: binding, rabbit; conditions: 1 nM 5-FAM-N6-ADP tracer; for IC50: 19 hours room temperature, read-out: half maximal point in the competition curve (IC50); for amount required to displace the tracer: compared with ADP and ATP
Description: To develop an anti-ADP antibody, 6-aminobutyl-ADP (Biolog Life Science Inst., Bremen, Germany) was conjugated to keyhole limpet hemocyanin with a suitable reagent such as glutaraldehyde and used to immunize rabbits. Other carrier proteins such as BSA or ovalbumin and other conjugation chemistries may be used. Attachment to carrier protein via the adenine ring exposes the ribosyl-phosphate moiety, where selectivity is required, and minimizes exposure of the adenine ring. The resulting antisera was tested for ADP binding affinity and selectivity in competitive fluorescence polarization binding assays. Synthesis of the fluor-ADP conjugates used as tracers in these binding assays is described below. […] The reaction mixtures consisted of 50 mM KPO4, 150 mM NaCl, 0.1 mg/mL BGG, 1 nM tracer, 3% Protein G-purified Anti-ADP antibody, and competitor. The reaction mixtures were incubated for 19 hours at room temperature. Competitors included ADP (∘), ATP (●), Adenosine (▪), and AMP (▴).

SULT1E1 [2] = target: T1, SULT1E1 (Homo sapiens, UniProt P49888); experiment: Inhibition of SULT1E1 measured with the FPIA-based assay; assay type: biochemical
T1 construct: made in house; host or cells: E. coli
T1 sequence (P49888 1-294): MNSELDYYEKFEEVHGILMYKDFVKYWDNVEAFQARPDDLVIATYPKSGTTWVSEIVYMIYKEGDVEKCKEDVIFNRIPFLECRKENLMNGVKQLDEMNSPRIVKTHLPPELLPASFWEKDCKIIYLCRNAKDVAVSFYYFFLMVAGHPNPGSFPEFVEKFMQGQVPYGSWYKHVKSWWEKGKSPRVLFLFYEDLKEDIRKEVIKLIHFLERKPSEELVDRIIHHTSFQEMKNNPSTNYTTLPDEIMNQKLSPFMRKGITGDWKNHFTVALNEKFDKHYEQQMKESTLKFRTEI
Description: Specifically, FIG. 25 is a graph showing inhibition of SULT1E1 by 2,6 Dichloro-4-nitrophenol (DCNP) measured with the FPIA-based assay. DCNP was serially diluted two-fold into wells in 46 uL of phosphate assay buffer (30 mM KPO4 (pH 6.5), 0.5 mg/mL BGG, 15 mM DTT, 1.6 mM MgCl2, 4 μM PAPS), followed by 50 μl of a 2× Antibody/tracer mix (5 uL 3642 Ab/2 nM Tracer C8-PAP-F14), and 200 ng of SULTIE in a total volume of 100 μl. The plate was incubated at room temp for 30 min, and read on the Tecan Ultra. AmP values were calculated by subtracting the SULT1E reactions from the no SULTIE controls. All values represent the mean of replicates.

SULT1E1 [3] = target: T1, SULT1E1; experiment: 35S-PAPS radioassay of SULT1E1 inhibition; assay type: biochemical; conditions: 35S-radioassay
SULT1E1 [4] = target: T1, SULT1E1; experiment: SULT1E1 enzymatic properties (Km, acceptor substrate specificity); assay type: biochemical; conditions: for acceptor substrate specificity: purified SULT1E1
Description: In order to establish a sulfotransferase HTS assay method, SULT1E1, a SULT isoform, was first subcloned into an E. coli expression vector with a C-terminal 6× histidine tag and the expressed protein was purified by affinity chromatography and characterized with respect to its physical and enzymatic properties.

UGT 2B7 Baculosomes = experiment: Mock UGT reactions: signal stabilization and reaction quenching; assay type: biochemical; conditions: EGTA at 80 mM, sodium vanadate at 30 mM; for effect on UDP breakdown: 5 μM UDP added, no acceptor substrate
Description: UGT enzymes are available only as crude membrane preparations that contain many other enzymes besides the desired UGT. Some of these contaminating enzymes can catalyze hydrolysis of the UDP molecule to UMP or Uridine, resulting in an unstable signal for the assay. To prevent this, agents such as sodium vanadate and EGTA are added to stabilize the assay signal by preventing breakdown of the UDP formed during the UGT reaction. […] The use of such a quenching reagent provides greater flexibility in experimental protocols because HTS assay plates may be read at any time after the quench reagent is added.

GDP monoclonal antibody = experiment: FP competition binding of GDP vs GTP to monoclonal antibody-tracer complex; set-up: species or system mouse; conditions: 2 nM far red Tracer, 0.85 μg/mL antibody, one hour
Description: Fluorescence intensity and polarization measurements utilizing the ADP-Alexa Fluor® or GDP-Alexa Fluor® tracers were performed on a Tecan Ultra or Safire^2™ plate reader (Durham, N.C.) using appropriate filter sets. For the ADP-Alexa Fluor®633 tracer, the filters for the Safire2 were 635 nm excitiation (LED) and 670 emission (20 nm bandwidth). The free tracer reference was set to 20 mP, and the buffer (with or without antibody) was used as the buffer blank for both the sample and free tracer reference wells. Data from binding and competition curves were fit to a variable slope sigmoidal dose-response curve and the IC50 were calculated using GraphPad Prism (GraphPad Software, San Diego, Calif.).
To identify suitable antibody/tracer pairs for FP assay development, equilibrium binding assays were performed by titrating ADP/GDP antibodies with a panel of ADP/GDP tracers (1-2 nM). The first well consisted of 1 mg/mL antibody in 30 μL of the final equilibrium buffer (i.e. 50 mM HEPES (pH 7.5), 0.01% Brij-35, 1 mM EGTA, 2 mM MgCl2, 0.5% DMSO, 20 mM EDTA, and 2 nM tracer). A two-fold serial dilution of the antibody was then performed in 15 μL of the same buffer. […]
In one example, the monoclonal antibody binding selectivity between GDP vs. GTP was analyzed and the results are set forth in FIG. 27. […]

Ab 3642 = experiment: FP competition curves with Ab 3642 and PAP tracer; assay type: binding, rabbit; conditions: read-out: IC50 for displacement of tracer
Description: N6-PAP-6F8 tracer is represented by the open symbols: ◯ (PAP), □ (PAPS). C8-PAP-F14 tracer is represented with the closed symbols: ● (PAP), ▪ (PAPS). PAP or PAPS was serially diluted two-fold in black mutiwell plates containing 50 mM phosphate buffer (pH 7.4), 150 mM NaCl, 0.1 mg/mL BGG, 1 nM C8-PAP-F14, and 1.5 uL purified Ab 3642 in a total volume of 12 μl or 1 nM N6-PAP-F8 and 0.5 uL 3642 Ab in a 20 uL volume. Polarization values were read after one hour at room temperature.
(§1) Competitors were serially diluted two-fold in a black 384-well microtiter plate containing 50 mM phosphate buffer (pH 7.4), 150 mM NaCl, 0.1 mg/mL BGG, 1 nM Tracer C8-PAP-F14, and either 1.5 uL Ab 3642 (A) or 3 uL Ab 1781 (B) in a total volume of 12 uL. After one hour incubation at room temperature, the polarization values were read on a Tecan Ultra (Ex485/Em535). The mean and standard deviation of duplicates for all data sets are shown.

Ab 1781 = experiment: FP competition curves with Ab 1781 and PAP tracer; assay type: binding, rabbit; conditions: 1 nM C8-PAP-F14 tracer, 3 uL Ab 1781; read-out: IC50 for displacement of tracer
Description: as §1

[5] = target: polyclonal antibody raised against a mixture of UTP and UDP conjugated to KLH (UGT-1); experiment: Competitive FP displacement of UTP tracers from anti-UDP/UTP antibody by uridine nucleotides; assay type: binding, rabbit
Description: To detect UGT catalytic activity a series of experiments were performed using the antibodies and tracers described above. […] The antibody and 2 nM of a commercially available Alexa® 488-5-aminoalkynyl-UTP molecule (Molecular Probes) were added to wells of a black multiwell plate (Thermo Labsystems Pt# 7605) containing the indicated amounts of uridine nucleotides in 50 mM KPO4pH 7.5, 150 mM NaCl, 0.1 mg/ml BGG . Fluorescence polarization was read in a Tecan Ultra plate reader after several hours of equilibration at room temperature using a Ex485/Em535 filter set.
Applicants further note that the ability of the antibody to selectively recognize low micromolar concentrations of UDP in the presence of UDPGA concentrations typically used for UGT assays —50-100μM —is important for achieving a low signal to background. Varying the structure of the immunogen, as mentioned above, is one way to change the relative binding properties of antibodies for UDP and UDPGA. Another way that is not as immediately obvious is to vary the tracer structure. The method depends on the relative ability of UDP and UDPGA to competitively displace the tracer from antibody, and it is reasonable to assume that not all tracers will show the same relative response to the two nucleotides. An example of such tracer effects is summarized in FIGS. 10 A and B. In this example, two different tracers are compared. The tracers are conjugates of 5-aminoallyl UTP to two different amine reactive Alexa Fluors®, one with an excitation peak of 546 and the other with an excitation of 568. Both of these tracers are displaced from antibody (anti-UDP rabbit polyclonal Ab or UGT-1) in a similar manner by UDP. […] Thus, the signal to background of the UGT assay with a given antibody can be enhanced by identifying tracers that are displaced by UDP more effectively than UDPGA.

SULT1E1 [6] = target: T1, SULT1E1; conditions: acceptor substrate; read-out: Km, published values for purified recombinant SULT1E1; cited from earlier work
[7] = 1 nM C8-PAP-F14 tracer, 1.5 uL Ab 3642
[8] = Alexa 546 5-aminoallyl UTP tracer, UGT-1, read-out: IC50 for displacement of tracer from antibody
[9] = 2 nM Alexa 488-5-aminoalkynyl-UTP tracer, UGT-1 antibody, read-out: half maximal values (IC50) for competing off the tracer

Molecule: Nc1ncnc2c1ncn2[C@@H]1O[C@H](COP(=O)(O)OP(=O)(O)O)[C@@H](O)[C@H]1O [ADP, adenosine diphosphate]
- IC50 [1]: 0.3 µM

Molecule: Nc1ncnc2c1ncn2[C@@H]1O[C@H](COP(=O)(O)O)[C@@H](O)[C@H]1O [AMP]
- amount required to displace the tracer [1]: much higher amounts

Molecule: Nc1ncnc2c1ncn2[C@@H]1O[C@H](COP(=O)(O)OP(=O)(O)OP(=O)(O)O)[C@@H](O)[C@H]1O [ATP, adenosine triphosphate]
- IC50 [1]: 15 µM

Molecule: O=[N+]([O-])c1cc(Cl)c(O)c(Cl)c1 [DCNP, 2,6 Dichloro-4-nitrophenol]
- Ki (SULT1E1 [2]): 7800 µM
- Ki (SULT1E1 [3]): 11000 µM

Molecule: C[C@]12CC[C@H](O)CC1=CC[C@@H]1[C@@H]2CC[C@]2(C)C(=O)CC[C@@H]12 [DHEA]
- acceptor substrate specificity (SULT1E1 [4]): very poor substrates

Molecule: O=C(O)CN(CCOCCOCCN(CC(=O)O)CC(=O)O)CC(=O)O [EGTA]
- effect on UGT activity (UGT 2B7 Baculosomes): minimal effects
- effect on UDP breakdown (UGT 2B7 Baculosomes): very effectively inhibits UDP breakdown

Molecule: Nc1nc2c(ncn2[C@@H]2O[C@H](COP(=O)(O)OP(=O)(O)O)[C@@H](O)[C@H]2O)c(=O)[nH]1 [GDP, guanosine diphosphate]
- IC50 (GDP monoclonal antibody): 0.01 µM

Molecule: Nc1nc2c(ncn2[C@@H]2O[C@H](COP(=O)(O)OP(=O)(O)OP(=O)(O)O)[C@@H](O)[C@H]2O)c(=O)[nH]1 [GTP, guanosine triphosphate]
- IC50 (GDP monoclonal antibody): 1.3 µM

Molecule: Nc1ncnc2c1ncn2[C@@H]1O[C@H](COP(=O)(O)O)[C@@H](OP(=O)(O)O)[C@H]1O [PAP, 3′-phosphoadenosine 5′-phosphate]
- IC50 (Ab 3642; [7]): 0.3 µM
- IC50 (Ab 3642; C8-PAP-F14 tracer, Ab 3642): 0.3 µM
- IC50 (Ab 1781): 0.3 µM

Molecule: Nc1ncnc2c1ncn2[C@@H]1O[C@H](COP(=O)(O)OS(=O)(=O)O)[C@@H](OP(=O)(O)O)[C@H]1O [PAPS, 3′-Phosphoadenosine 5′-phosphosulphate]
- IC50 (Ab 3642; [7]): 3.8 µM
- IC50 (Ab 1781): 1.5 µM
- Km (SULT1E1 [4]; donor, read-out: Km for PAPS with SULT1E1): ~0.05 µM

Molecule: O=C(O)[C@H]1O[C@H](OP(=O)(O)OP(=O)(O)OC[C@H]2O[C@@H](n3ccc(=O)[nH]c3=O)[C@H](O)[C@@H]2O)[C@H](O)[C@@H](O)[C@@H]1O [UDPGA, UDP-glucuronic acid]
- IC50 ([5]; 2 nM Alexa 488-5-aminoalkynyl-UTP tracer, UGT-1 antibody, read-out: IC50 for competing off the tracer): ~2000 µM
- IC50 [5, 8]: 1200 µM

Molecule: O=c1ccn([C@@H]2O[C@H](COP(=O)(O)OP(=O)(O)O)[C@@H](O)[C@H]2O)c(=O)[nH]1 [UDP]
- IC50 [5, 9]: 15 µM
- IC50 [5, 8]: 7 µM
- IC50 ([5]; Alexa 568 5-aminoallyl UTP tracer, UGT-1, read-out: IC50 for displacement of tracer from antibody): 9 µM

Molecule: O=c1ccn([C@@H]2O[C@H](COP(=O)(O)OP(=O)(O)OP(=O)(O)O)[C@@H](O)[C@H]2O)c(=O)[nH]1 [UTP]
- IC50 [5, 9]: 5 µM

Molecule: Nc1ncnc2c1ncn2[C@@H]1O[C@H](CO)[C@@H](O)[C@H]1O [adenosine, Adenosine]
- amount required to displace the tracer [1]: much higher amounts

Molecule: NCCc1ccc(O)c(O)c1 [dopamine]
- acceptor substrate specificity (SULT1E1 [4]): very poor substrates

Molecule: C[C@]12CC[C@@H]3c4ccc(O)cc4CC[C@H]3[C@@H]1CC[C@@H]2O [estradiol]
- Km (SULT1E1 [6]): 0.005 to 0.015 µM

Molecule: Oc1cccc2ccccc12 [α-naphthol]
- acceptor substrate specificity (SULT1E1 [4]): intermediate

Molecule: Sodium vanadate
- effect on UGT activity (UGT 2B7 Baculosomes): very effectively inhibits UGT activity
- effect on UDP breakdown (UGT 2B7 Baculosomes): prevents UDP breakdown
